The target of data set [1] is T1, human CB1 receptor (Homo sapiens, UniProt P21554).
T1 construct: expressed in transfected cells; b94 says CHO for CB1
The experiment in a line: CB1 receptor binding, [3H]CP55,940 displacement in membranes of transfected cells. How it is done:
(§1) For the in vivo studies, the drugs were dissolved in either saline or emulphor:ethanol:saline (E:E:S) as indicated.
(§2) cLogP calculations. Absolute solubility determinations were not performed. Rather, cLogP calculations were performed using the CS ChemDraw Ultra software (Cambridge Soft Corporation, Cambridge, Mass.). Receptor Binding. HEK-293 cells stably expressing the human CB1 receptor were cultured in DMEM with 10% FBS and Chinese Hamster Ovary (CHO) cells stably expressing the human CB2 receptor were cultured in DMEM with 10% FCS. Cells were harvested by replacement of the media with cold phosphate-buffered saline containing 1 mM EDTA followed by centrifugation at 1000×g for 5 min at 4° C. The pellet was resuspended in 50 mM Tris-HCl containing 320 mM sucrose, 2 mM EDTA and 5 mM MgCl2 (pH 7.4) (centrifugation buffer), then centrifuged at 1000×g for 10 min at 4° C., and the resulting supernatant was saved. This process was repeated twice. The supernatant fractions were combined and centrifuged at 40,000×g for 30 min at 4° C. The resulting P2 pellet was resuspended in assay buffer (50 mM Tris-HCl (pH 7.4), 3 mM MgCl2, 0.2 mM EGTA, and 100 mM NaCl) and protein was determined by the method of Bradford ENRfu(Bradford 1976). Membranes were stored at −80° C. until use. […] The assay was incubated at 30° C. for 1 hr and terminated by addition of ice cold 50 mM Tris-HCl plus BSA (1 mg/ml) (pH 7.4) followed by filtration under vacuum through Whatman GF/B glass fiber filters with 3 washes with cold Tris buffer. Bound radioactivity was determined by liquid scintillation spectrophotometry at 50% efficiency after extraction by shaking samples for 30-60 min with Budget-Solve scintillation fluid. Data are reported as the mean±SEM of three experiments, each performed in triplicate. Ki values were calculated from displacement data using EBDA (Equilibrium Binding Data Analysis; BIOSOFT, Milltown, N.J.). [^35S]GTPγS Binding Assays. Concentration-effect curves were generated by incubating membranes (10 μg prepared from CB1 expressing cells as described above) in assay buffer containing BSA (1 mg/ml) with various concentrations of test compounds in the presence of 20 μM GDP and 0.1 nM [^35S]GTPγS in a 1 ml total volume. […] Basal binding was assessed in the absence of agonist, and nonspecific binding was measured in the presence of 10 μM GTPγS. The reaction was incubated for 90 min at 30° C. and terminated by filtration under vacuum through Whatman GF/B glass fiber filters with 3 washes with cold (4° C.) Tris buffer (50 mM Tris-HCl, pH 7.4). Bound radioactivity was determined by liquid scintillation spectrophotometry at 95% efficiency after extraction overnight in ScintiSafe Econo 1 scintillation fluid. Data are reported as mean±SEM of three experiments, each performed in triplicate. Nonlinear regression analysis was conducted by iterative fitting using JMP (SAS for Macintosh). Net-stimulated [^35S]GTPγS binding is defined as [^35S]GTPγS binding in the presence of drug minus basal and percent stimulation is expressed as (net stimulated [^35S]GTPγS binding/basal)×100%. Behavioral Evaluations. All animals were allowed to acclimate to the observation room overnight. Behavioral effects were assessed in the tetrad model in order to measure potency in producing antinociception, catalepsy, hypothermia, and hypomobility. The baselines for tail-flick latency (2-4 seconds) and rectal temperature were determined prior to i.v. injections. Baseline rectal temperatures were measured using a telethermometer and a thermometer probe inserted to 25 mm (Yellow Springs Instrument Co., Yellow Springs, Ohio). The mice were then given either an i.v. i.c.v. injection of the analog. The mice were placed in individual photocell activity chambers 5 min later. Spontaneous activity was monitored for 10 min in a Digiscan Animal Activity Monitor (Omnitech Electronice, Inc., Columbus, Ohio) as measured by the number of interruptions of 16 photocell beams per chamber.

Data set [2] addresses T1, human CB1 receptor. As to the kind of experiment: [35S]GTPγS binding assay in membranes of CB1 expressing cells. It counts as biochemical. To be noted: for EC50: mean±SEM; for Emax: maximal GTPγS binding as percentage of stimulation produced by CP 55,940, read-out: CB1 % CP Stim. How it is done:
as §1, §2

Data set [3] has as its system mice. The experiment in a line: Tail-flick antinociception (T.F.), mouse tetrad. It counts as in vivo. To be noted: for ED50: Mus musculus, mice.
The subject of data set [4] is mice. As to the kind of experiment: Rectal temperature (R.T.), mouse tetrad. To be noted: Mus musculus. In kind it is in vivo.
For data set [5], the system named is mice. As to the kind of experiment: Relative immobility (R.I.), ring-immobility test, mouse tetrad. It counts as in vivo. Particulars: Mus musculus.
How the values of data set [6] were obtained:
By “water-soluble” we mean that 1 mg of material in 1 ml of water gives a clear solution and is water miscible.
as §1

Where [7] appears, read: iv, i.v., vehicle E:E:S (1:1:18), read-out: T.F. ED50 (antinociception in the tail-flick procedure).
Where [8] appears, read: iv, vehicle E:E:S (1:1:18), read-out: R.T. ED50 (lowering rectal temperature).
Where [9] appears, read: iv, vehicle E:E:S (1:1:18), read-out: R.I. ED50 (relative immobility).
[10] abbreviates: iv, figure legends, i.v., vehicle 1:1:18 ethanol:emulphor:saline, read-out: ED50 after i.v. administration, tail-flick.
The mark [11] stands for this setting: iv, figure legends, i.v., vehicle 1:1:18 ethanol:emulphor:saline, read-out: ED50 after i.v. administration, rectal temperature.
Setting [12] is: iv, figure legends, i.v., vehicle 1:1:18 ethanol:emulphor:saline, read-out: ED50 after i.v. administration, relative immobility.

Molecules are shown by their SMILES. Like-named read-outs stand apart in the source and are kept apart here.

T1 sequence (P21554 whole entry): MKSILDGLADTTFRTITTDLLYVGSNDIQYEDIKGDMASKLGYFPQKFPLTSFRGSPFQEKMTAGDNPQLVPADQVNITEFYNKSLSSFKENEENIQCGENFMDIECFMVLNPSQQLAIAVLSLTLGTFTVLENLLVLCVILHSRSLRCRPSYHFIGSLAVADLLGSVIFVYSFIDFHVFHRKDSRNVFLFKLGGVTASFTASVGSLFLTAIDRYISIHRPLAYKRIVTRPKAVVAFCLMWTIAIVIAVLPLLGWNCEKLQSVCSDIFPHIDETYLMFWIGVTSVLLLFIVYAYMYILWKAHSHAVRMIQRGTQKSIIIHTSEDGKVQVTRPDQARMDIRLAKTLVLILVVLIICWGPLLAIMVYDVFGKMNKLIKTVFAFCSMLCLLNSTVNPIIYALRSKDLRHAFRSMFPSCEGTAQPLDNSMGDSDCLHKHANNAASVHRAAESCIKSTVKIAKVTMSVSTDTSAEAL

In turn, `CC1=CC[C@@H]2[C@@H](C1)c1c(O)cc(C(C)(C)CCCCC(=O)NN3CCOCC3)cc1OC2(C)C` [O-2544, N-(Morpholin-1-yl)-carboxamido] returned a Ki at human CB1 receptor [1] (CB1 Ki) of 5.97 ± 0.65 nM. The EC50 at human CB1 receptor [2] (CB1 EC50, [35S]GTPγS binding) came out at 39.7 ± 11.4 nM. In addition, the Emax on human CB1 receptor [2] worked out at 116 ± 3.71%. In addition, the ED50 stood at 0.48 µmol/kg with mice [3] (setting [7]), 0.25 µmol/kg in the data set with mice [4] (setting [8]) and 0.63 µmol/kg with mice [5] (setting [9]). In data set [6], the “Solubility (water-soluble)” value is on record as “No”. The “Water solubility of the hydrochloride salt” value in data set [6] is reported as “none of the HCl salts was water-soluble”.

In the case of `CC1=CC[C@@H]2[C@@H](C1)c1c(O)cc(C(C)(C)CCCCn3ccnc3C)cc1OC2(C)C` [O-2651, 2-Methyl-imidazol-1-y1], on human CB1 receptor [1] (CB1 Ki), the Ki was 13.9 ± 0.83 nM. It took 82.9 ± 45.7 nM to reach a half-maximal effect at human CB1 receptor [2] (CB1 EC50, [35S]GTPγS binding) (EC50). The Emax at human CB1 receptor [2] came out at 33.4 ± 3.41%. The ED50 amounted to 1.75 µmol/kg in the data set with mice [3] (iv, i.v., vehicle saline, read-out: T.F. ED50 (antinociception in the tail-flick procedure)); 3.58 µmol/kg in the data set with mice [4] (iv, vehicle saline, read-out: R.T. ED50 (lowering rectal temperature)); 4.29 µmol/kg with mice [5] (iv, vehicle saline, read-out: R.I. ED50 (relative immobility)). Also, the “Solubility (water-soluble)” value in data set [6] was “Yes”.

Take `CC1=CC[C@@H]2C(C1)c1c(OC(=O)CCCN(C(C)C)C(C)C)cc(C(C)(C)CCCCC(=O)N3CCOCC3)cc1OC2(C)C` (some centres unmarked) [O-2694, Diisopropylaminobutyrate of Δ^8-THC-3-(1,1-dimethyl-6-morpholin-4-yl-6-oxo-hexyl)]: at human CB1 receptor [1] (Tables 2b, 3b, 4a, mean±SEM, read-out: CB1 Ki), the Ki is 3.7 ± 0.43 nM. The concentration giving a half-maximal response (EC50) on human CB1 receptor [2] ([35S]GTPγS binding, read-out: CB1 EC50) is 28.3 ± 3.47 nM. The Emax at human CB1 receptor [2] worked out at 120 ± 8.04%. The ED50 in the data set with mice [3] (Table 4b, vehicle not indicated, read-out: T.F. ED50 (antinociception in the tail-flick procedure)) worked out at 0.035 µmol/kg; in the data set on mice [4] (Table 4b, vehicle not indicated, read-out: R.T. ED50 (lowering rectal temperature)), 0.12 µmol/kg; in the data set with mice [5] (Table 4b, vehicle not indicated, read-out: R.I. ED50 (relative immobility)), 0.11 µmol/kg. The “Solubility (water-soluble)” value in data set [6] (1 mg of analog in 1 ml of water, visual observation) was “Yes”.

`CC1=CC[C@@H]2[C@@H](C1)c1c(O)cc(C(C)(C)CCCCn3cccn3)cc1OC2(C)C` [O-2715, Pyrazol-1-yl]: the Ki on human CB1 receptor [1] (CB1 Ki) was 1.94 ± 0.29 nM. For the same compound, the EC50 on human CB1 receptor [2] (CB1 EC50, [35S]GTPγS binding) amounted to 4.03 ± 0.28 nM. At human CB1 receptor [2], the Emax came out at 93 ± 1.75%. Also, the ED50 with mice [3] (setting [10]) is 0.06 µmol/kg; in the data set on mice [3] (setting [7]), 0.06 µmol/kg; in the data set with mice [4] (setting [11]), 0.14 µmol/kg; with mice [4] (setting [8]) it was 0.14 µmol/kg; with mice [5] (setting [12]), 0.07 µmol/kg; in the data set with mice [5] (setting [9]) it was 0.07 µmol/kg. The “Analgesia in the tail-flick procedure” value with mice [3] (oral 10 mg/kg, at one hr) came out at 21±6%. Also, the “Solubility (water-soluble)” value in data set [6] was “No”.

As to `CC1=CC[C@@H]2[C@@H](C1)c1c(O)cc(C(C)(C)CCCCn3cncn3)cc1OC2(C)C` [O-2716, 1,2,4-Triazol-1-yl], at human CB1 receptor [1] (CB1 Ki), the Ki turned out to be 3.43 ± 0.16 nM. The same compound showed an EC50 at human CB1 receptor [2] (CB1 EC50, [35S]GTPγS binding) of 36.8 ± 4.23 nM. Moreover, the Emax on human CB1 receptor [2] amounted to 93.1 ± 1.65%. Further, the ED50 with mice [3] (setting [10]) came out at 0.09 µmol/kg; in the data set on mice [3] (setting [7]) it was 0.09 µmol/kg; in the data set on mice [4] (setting [11]) it was 0.15 µmol/kg; in the data set with mice [4] (setting [8]), 0.15 µmol/kg; in the data set with mice [5] (setting [12]), 0.2 µmol/kg; in the data set on mice [5] (setting [9]) it was 0.2 µmol/kg. Also, the “Antinociception following oral administration” value in the data set with mice [3] (oral, maximum dose tested 10 mg/kg, 30 minutes before testing) is recorded as “failed to produce complete antinociception”. Also, the “Solubility (water-soluble)” value in data set [6] is reported as “No”.

Source of the values: patent publication US20080064679A1, “Water Soluble Cannabinoids” (priority 2004, published 2008).
